Assay results from patent US10597388B2, “Pyridazinone herbicides” (FMC CORPORATION, priority 2014, dated 2020).

How the values were obtained:
Assay in all cases: Test C greenhouse herbicide test, pre- and postemergence
Type in all cases: in vivo
[1] = test system: barnyardgrass (Echinochloa crus-galli)
Procedure, shortened: (§1)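 Visual 0–100 injury score (100 = complete control) taken against untreated controls after 13–15 d in greenhouse. Test chemicals, formulated in solvent plus surfactant, applied preemergence to seeds in loam–sand soil or postemergence to 1- to 4-leaf plants (2–18 cm).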

[2] = test system: blackgrass (Alopecurus myosuroides)
Procedure, shortened: as §1

[3] = test system: corn (Zea mays)
Procedure, shortened: as §1

[4] = test system: crabgrass, large (large crabgrass, Digitaria sanguinalis)
Procedure, shortened: as §1

[5] = test system: foxtail, giant (giant foxtail, Setaria faberii)
Procedure, shortened: as §1

[6] = test system: galium (catchweed bedstraw, Galium aparine)
Procedure, shortened: as §1

[7] = test system: lambsquarters (Chenopodium album)
Procedure, shortened: as §1

[8] = test system: nutsedge, yellow (yellow nutsedge, Cyperus esculentus)
Procedure, shortened: as §1

[9] = test system: oilseed rape (Brassica napus)
Procedure, shortened: as §1

[10] = test system: pigweed (Amaranthus retroflexus)
Procedure, shortened: as §1

[11] = test system: ragweed (common ragweed, Ambrosia elatior)
Procedure, shortened: as §1

[12] = test system: ryegrass, Italian (Italian ryegrass, Lolium multiflorum)
Procedure, shortened: as §1

[13] = test system: soybean (Glycine max)
Procedure, shortened: as §1

[14] = test system: velvetleaf (Abutilon theophrasti)
Procedure, shortened: as §1

[15] = test system: wheat (winter wheat, Triticum aestivum)
Procedure, shortened: as §1

[16] = Postemergence, 31 g ai/ha, 0 to 100 scale (0 no effect, 100 complete control)
[17] = Postemergence, 125 g ai/ha, scale 0 to 100, 0 is no effect, 100 is complete control
[18] = Postemergence, 250 g ai/ha, scale 0 to 100, 0 no effect, 100 complete control, 13 to 15 d
[19] = Preemergence, 31 g ai/ha, scale 0 to 100, 0 is no effect, 100 is complete control
[20] = Preemergence, 62 g ai/ha, scale 0 to 100, 0 is no effect, 100 is complete control
[21] = Preemergence, 125 g ai/ha, scale 0 to 100, 0 is no effect, 100 is complete control
[22] = Preemergence, 250 g ai/ha, scale 0 to 100, 0 no effect, 100 complete control
[23] = postemergence, 62 g ai/ha, scale 0 to 100, 0 no effect, 100 complete control

## Cc1ccc2sc(Br)c(-c3c(O)c(C)nn(C)c3=O)c2c1 [Compound 79]
[1]; [16]
  Barnyardgrass plant response rating: 20
[1]; [17]
  Plant response rating, Barnyardgrass: 30
[1]; [18]
  Plant response rating, Barnyardgrass: 40
[1]; [19]
  Plant response rating, Barnyardgrass: 10
[1]; [20]
  Plant response rating, Barnyardgrass: 15
[1]; [21]
  Plant response rating, Barnyardgrass: 65
[1]; [22]
  Barnyardgrass plant response rating: 85
[1]; [23]
  Barnyardgrass plant response rating: 25
[2]; [16]
  Blackgrass plant response rating: 5
[2]; [17]
  Plant response rating, Blackgrass: 35
[2]; [18]
  Plant response rating, Blackgrass: 50
[2]; [19]
  Plant response rating, Blackgrass: 20
[2]; [20]
  Plant response rating, Blackgrass: 50
[2]; [21]
  Plant response rating, Blackgrass: 60
[2]; [22]
  Blackgrass plant response rating: 85
[2]; [23]
  Blackgrass plant response rating: 10
[3]; [16]
  Corn plant response rating: 0
[3]; [17]
  Plant response rating, Corn: 25
[3]; [18]
  Plant response rating, Corn: 35
[3]; [19]
  Plant response rating, Corn: 0
[3]; [20]
  Plant response rating, Corn: 0
[3]; [21]
  Plant response rating, Corn: 5
[3]; [22]
  Corn plant response rating: 5
[3]; [23]
  Corn plant response rating: 0
[4]; [16]
  Crabgrass, Large plant response rating: 20
[4]; [17]
  Plant response rating, Crabgrass, Large: 30
[4]; [18]
  Plant response rating, Crabgrass, Large: 35
[4]; [19]
  Plant response rating, Crabgrass, Large: 25
[4]; [20]
  Plant response rating, Crabgrass, Large: 25
[4]; [21]
  Plant response rating, Crabgrass, Large: 20
[4]; [22]
  Crabgrass, Large plant response rating: 30
[4]; [23]
  Crabgrass, Large plant response rating: 25
[5]; [16]
  Foxtail, Giant plant response rating: 35
[5]; [17]
  Plant response rating, Foxtail, Giant: 75
[5]; [18]
  Plant response rating, Foxtail, Giant: 90
[5]; [19]
  Plant response rating, Foxtail, Giant: 65
[5]; [20]
  Plant response rating, Foxtail, Giant: 85
[5]; [21]
  Plant response rating, Foxtail, Giant: 85
[5]; [22]
  Foxtail, Giant plant response rating: 95
[5]; [23]
  Foxtail, Giant plant response rating: 60
[6]; [16]
  Galium plant response rating: 95
[6]; [17]
  Plant response rating, Galium: 95
[6]; [18]
  Plant response rating, Galium: 95
[6]; [19]
  Plant response rating, Galium: 95
[6]; [20]
  Plant response rating, Galium: 95
[6]; [21]
  Plant response rating, Galium: 95
[6]; [22]
  Galium plant response rating: 98
[6]; [23]
  Galium plant response rating: 95
[7]; [16]
  Lambsquarters plant response rating: 85
[7]; [17]
  Plant response rating, Lambsquarters: 98
[7]; [18]
  Plant response rating, Lambsquarters: 100
[7]; [19]
  Plant response rating, Lambsquarters: 100
[7]; [20]
  Plant response rating, Lambsquarters: 95
[7]; [21]
  Plant response rating, Lambsquarters: 100
[7]; [22]
  Lambsquarters plant response rating: 100
[7]; [23]
  Lambsquarters plant response rating: 95
[8]; [16]
  Nutsedge, Yellow plant response rating: 85
[8]; [17]
  Plant response rating, Nutsedge, Yellow: 80
[8]; [18]
  Plant response rating, Nutsedge, Yellow: 85
[8]; [19]
  Plant response rating, Nutsedge, Yellow: 25
[8]; [20]
  Plant response rating, Nutsedge, Yellow: 45
[8]; [21]
  Plant response rating, Nutsedge, Yellow: 90
[8]; [22]
  Nutsedge, Yellow plant response rating: 90
[8]; [23]
  Nutsedge, Yellow plant response rating: 80
[9]; [16]
  Oilseed Rape plant response rating: 20
[9]; [17]
  Plant response rating, Oilseed Rape: 70
[9]; [18]
  Plant response rating, Oilseed Rape: 80
[9]; [19]
  Plant response rating, Oilseed Rape: 0
[9]; [20]
  Plant response rating, Oilseed Rape: 35
[9]; [21]
  Plant response rating, Oilseed Rape: 30
[9]; [22]
  Oilseed Rape plant response rating: 30
[9]; [23]
  Oilseed Rape plant response rating: 25
[10]; [16]
  Pigweed plant response rating: 90
[10]; [17]
  Plant response rating, Pigweed: 98
[10]; [18]
  Plant response rating, Pigweed: 98
[10]; [19]
  Plant response rating, Pigweed: 100
[10]; [20]
  Plant response rating, Pigweed: 100
[10]; [21]
  Plant response rating, Pigweed: 100
[10]; [22]
  Pigweed plant response rating: 100
[10]; [23]
  Pigweed plant response rating: 98
[11]; [16]
  Ragweed plant response rating: 90
[11]; [17]
  Plant response rating, Ragweed: 98
[11]; [18]
  Plant response rating, Ragweed: 98
[11]; [19]
  Plant response rating, Ragweed: 90
[11]; [20]
  Plant response rating, Ragweed: 95
[11]; [21]
  Plant response rating, Ragweed: 98
[11]; [22]
  Ragweed plant response rating: 100
[11]; [23]
  Ragweed plant response rating: 95
[12]; [16]
  Ryegrass, Italian plant response rating: 50
[12]; [17]
  Plant response rating, Ryegrass, Italian: 85
[12]; [18]
  Plant response rating, Ryegrass, Italian: 85
[12]; [19]
  Plant response rating, Ryegrass, Italian: 20
[12]; [20]
  Plant response rating, Ryegrass, Italian: 90
[12]; [21]
  Plant response rating, Ryegrass, Italian: 90
[12]; [22]
  Ryegrass, Italian plant response rating: 90
[12]; [23]
  Ryegrass, Italian plant response rating: 60
[13]; [16]
  Soybean plant response rating: 0
[13]; [17]
  Plant response rating, Soybean: 5
[13]; [18]
  Plant response rating, Soybean: 5
[13]; [19]
  Plant response rating, Soybean: 0
[13]; [20]
  Plant response rating, Soybean: 0
[13]; [21]
  Plant response rating, Soybean: 5
[13]; [22]
  Soybean plant response rating: 0
[13]; [23]
  Soybean plant response rating: 0
[14]; [16]
  Velvetleaf plant response rating: 75
[14]; [17]
  Plant response rating, Velvetleaf: 90
[14]; [18]
  Plant response rating, Velvetleaf: 90
[14]; [19]
  Plant response rating, Velvetleaf: 80
[14]; [20]
  Plant response rating, Velvetleaf: 85
[14]; [21]
  Plant response rating, Velvetleaf: 95
[14]; [22]
  Velvetleaf plant response rating: 95
[14]; [23]
  Velvetleaf plant response rating: 85
[15]; [16]
  Wheat plant response rating: 0
[15]; [17]
  Plant response rating, Wheat: 0
[15]; [18]
  Plant response rating, Wheat: 0
[15]; [19]
  Plant response rating, Wheat: 0
[15]; [20]
  Plant response rating, Wheat: 0
[15]; [21]
  Plant response rating, Wheat: 0
[15]; [22]
  Wheat plant response rating: 0
[15]; [23]
  Wheat plant response rating: 0
